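Where inhibition never reached the appropriate level, the endpoint shown equals the highest concentration tested. Otherwise, values were interpolated linearly from a five-concentration, 48-hour dose response in 96-well plates. GI50: concentration for 50% inhibition of growth. The concentration for full growth arrest is given as TGI.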
Legend:
Experiment in all cases: DTP human tumour cell line panel, 48 h
MOLT-4 leukemia = system: MOLT-4 leukemia
HL-60(TB) leukemia = system: HL-60(TB) leukemia
HCT-116 colon = system: HCT-116 colon
M14 melanoma = system: M14 melanoma
TK-10 renal = system: TK-10 renal
ACHN renal = system: ACHN renal
SK-MEL-2 melanoma = system: SK-MEL-2 melanoma
A549 NSCLC = system: A549 NSCLC
A498 renal = system: A498 renal
RXF 393 renal = system: RXF 393 renal
MDA-N = system: MDA-N
786-0 renal = system: 786-0 renal
OVCAR-4 ovarian = system: OVCAR-4 ovarian
K-562 leukemia = system: K-562 leukemia
EKVX NSCLC = system: EKVX NSCLC
DU-145 prostate = system: DU-145 prostate
SR leukemia = system: SR leukemia
HCT-15 colon = system: HCT-15 colon
SF-539 CNS = system: SF-539 CNS
SK-OV-3 ovarian = system: SK-OV-3 ovarian
MALME-3M melanoma = system: MALME-3M melanoma
SK-MEL-5 melanoma = system: SK-MEL-5 melanoma
UO-31 renal = system: UO-31 renal
UACC-62 melanoma = system: UACC-62 melanoma
SNB-19 CNS = system: SNB-19 CNS
LOX IMVI melanoma = system: LOX IMVI melanoma
NCI-H460 lung = system: NCI-H460 lung
COLO 205 colon = system: COLO 205 colon
UACC-257 melanoma = system: UACC-257 melanoma
SF-295 CNS = system: SF-295 CNS
SK-MEL-28 melanoma = system: SK-MEL-28 melanoma
MCF7 breast = system: MCF7 breast
SW-620 colon = system: SW-620 colon
NCI-H23 lung = system: NCI-H23 lung
OVCAR-5 ovarian = system: OVCAR-5 ovarian
KM12 colon = system: KM12 colon
PC-3 prostate = system: PC-3 prostate
HOP-62 NSCLC = system: HOP-62 NSCLC
OVCAR-3 ovarian = system: OVCAR-3 ovarian
RPMI-8226 leukemia = system: RPMI-8226 leukemia
HCC-2998 colon = system: HCC-2998 colon
SF-268 CNS = system: SF-268 CNS
HOP-92 NSCLC = system: HOP-92 NSCLC
MDA-MB-435 = system: MDA-MB-435
CCRF-CEM leukemia = system: CCRF-CEM leukemia
NCI/ADR-RES ovarian = system: NCI/ADR-RES ovarian
SN12C renal = system: SN12C renal
MDA-MB-231 breast = system: MDA-MB-231 breast
U251 CNS = system: U251 CNS
OVCAR-8 ovarian = system: OVCAR-8 ovarian
HS 578T breast = system: HS 578T breast
HT29 colon = system: HT29 colon
NCI-H226 lung = system: NCI-H226 lung
T-47D breast = system: T-47D breast
SNB-75 CNS = system: SNB-75 CNS
CAKI-1 renal = system: CAKI-1 renal
NCI-H522 lung = system: NCI-H522 lung
IGROV1 ovarian = system: IGROV1 ovarian
BT-549 breast = system: BT-549 breast

Compound `Cc1nc2c([nH]c1C)c(O)cc1c3c(nc12)C(=O)CCC3` has a TGI (MOLT-4 leukemia) of over 100 µM, a TGI (HL-60(TB) leukemia) of over 100 µM and a TGI (HCT-116 colon) of over 100 µM. It also gave a TGI (M14 melanoma) of over 100 µM, a TGI (TK-10 renal) of 26.3 µM and a TGI (ACHN renal) of over 100 µM. For the same compound, the TGI (SK-MEL-2 melanoma) was 8.92 µM, the TGI (A549 NSCLC) was 14.1 µM and the TGI (A498 renal) was over 100 µM. For the same compound, the TGI (RXF 393 renal) was 3.68 µM, the TGI (MDA-N) was 3.1 µM and the TGI (786-0 renal) was over 100 µM. It also gave a TGI (OVCAR-4 ovarian) of 45.4 µM, a TGI (K-562 leukemia) of over 100 µM and a TGI (EKVX NSCLC) of over 100 µM. The TGI (DU-145 prostate) was over 100 µM, the TGI (SR leukemia) was 8.77 µM and the TGI (HCT-15 colon) was over 100 µM. It also gave a TGI (SF-539 CNS) of 13.6 µM, a TGI (SK-OV-3 ovarian) of 38.1 µM and a TGI (MALME-3M melanoma) of over 100 µM. The TGI (SK-MEL-5 melanoma) was over 100 µM, the TGI (UO-31 renal) was 84.2 µM and the TGI (UACC-62 melanoma) was 52.6 µM. It also gave a TGI (SNB-19 CNS) of over 100 µM, a TGI (LOX IMVI melanoma) of over 100 µM and a TGI (NCI-H460 lung) of over 100 µM. For the same compound, the TGI (COLO 205 colon) was 5.99 µM, the TGI (UACC-257 melanoma) was over 100 µM and the TGI (SF-295 CNS) was 90.8 µM. It also gave a TGI (SK-MEL-28 melanoma) of over 100 µM, a TGI (MCF7 breast) of 4.35 µM and a TGI (SW-620 colon) of over 100 µM. For the same compound, the TGI (NCI-H23 lung) was over 100 µM, the TGI (OVCAR-5 ovarian) was over 100 µM and the TGI (KM12 colon) was over 100 µM. For the same compound, the TGI (PC-3 prostate) was over 100 µM, the TGI (HOP-62 NSCLC) was over 100 µM and the TGI (OVCAR-3 ovarian) was 7.31 µM. The TGI (RPMI-8226 leukemia) was 7.05 µM, the TGI (HCC-2998 colon) was 7.88 µM and the TGI (SF-268 CNS) was 96.2 µM. It also gave a TGI (HOP-92 NSCLC) of over 100 µM, a TGI (MDA-MB-435) of 2.05 µM and a TGI (CCRF-CEM leukemia) of over 100 µM. For the same compound, the TGI (NCI/ADR-RES ovarian) was over 100 µM, the TGI (SN12C renal) was over 100 µM and the TGI (MDA-MB-231 breast) was over 100 µM. It also gave a TGI (U251 CNS) of 20.9 µM, a TGI (OVCAR-8 ovarian) of 8.25 µM and a TGI (HS 578T breast) of 83 µM. The TGI (HT29 colon) was 11.7 µM and the TGI (NCI-H226 lung) was over 100 µM.
In the case of `Oc1ccccc1N=Cc1c(O)ccc2ccccc12`, the GI50 (MOLT-4 leukemia) is reported as 10.2 µM, the TGI (MOLT-4 leukemia) is reported as 80.3 µM and the GI50 (HL-60(TB) leukemia) is reported as 4.95 µM. For the same compound, the TGI (HL-60(TB) leukemia) was 33.3 µM, the GI50 (HCT-116 colon) was 13 µM and the TGI (HCT-116 colon) was 46 µM. It also gave a GI50 (M14 melanoma) of 13.4 µM, a TGI (M14 melanoma) of 40.2 µM and a GI50 (TK-10 renal) of 14.2 µM. The TGI (TK-10 renal) was 66.2 µM, the GI50 (ACHN renal) was 4.96 µM and the TGI (ACHN renal) was 42.6 µM. For the same compound, the GI50 (SK-MEL-2 melanoma) was 13.3 µM, the TGI (SK-MEL-2 melanoma) was 40.5 µM and the GI50 (A549 NSCLC) was 24.6 µM. For the same compound, the TGI (A549 NSCLC) was 91.9 µM, the GI50 (A498 renal) was 5.61 µM and the TGI (A498 renal) was 23.6 µM. The GI50 (T-47D breast) was 7.5 µM, the TGI (T-47D breast) was 54.9 µM and the GI50 (RXF 393 renal) was 10.6 µM. The TGI (RXF 393 renal) was 34.6 µM, the GI50 (786-0 renal) was 19.5 µM and the TGI (786-0 renal) was 68.3 µM. The GI50 (SNB-75 CNS) was 10.4 µM, the TGI (SNB-75 CNS) was 62.5 µM and the GI50 (OVCAR-4 ovarian) was 13.4 µM. The TGI (OVCAR-4 ovarian) was 75.4 µM, the GI50 (K-562 leukemia) was 15.3 µM and the TGI (K-562 leukemia) was over 100 µM. It also gave a GI50 (EKVX NSCLC) of 15.8 µM, a TGI (EKVX NSCLC) of 57.8 µM and a GI50 (CAKI-1 renal) of 5.61 µM. It also gave a TGI (CAKI-1 renal) of 26.6 µM, a GI50 (DU-145 prostate) of 19.5 µM and a TGI (DU-145 prostate) of over 100 µM. It also gave a GI50 (SR leukemia) of 15.3 µM, a TGI (SR leukemia) of 47.7 µM and a GI50 (HCT-15 colon) of 15.3 µM. It also gave a TGI (HCT-15 colon) of over 100 µM, a GI50 (SF-539 CNS) of 14.2 µM and a TGI (SF-539 CNS) of 39 µM. It also gave a GI50 (SK-OV-3 ovarian) of 15.9 µM, a TGI (SK-OV-3 ovarian) of 54.7 µM and a GI50 (MALME-3M melanoma) of 5 µM. The TGI (MALME-3M melanoma) was 27 µM, the GI50 (SK-MEL-5 melanoma) was 9.99 µM and the TGI (SK-MEL-5 melanoma) was 34.7 µM. It also gave a GI50 (UO-31 renal) of 3.59 µM, a TGI (UO-31 renal) of 28.3 µM and a GI50 (UACC-62 melanoma) of 9.78 µM. The TGI (UACC-62 melanoma) was 38.5 µM, the GI50 (SNB-19 CNS) was 21.8 µM and the TGI (SNB-19 CNS) was over 100 µM. It also gave a GI50 (LOX IMVI melanoma) of 10.6 µM, a TGI (LOX IMVI melanoma) of 45 µM and a GI50 (NCI-H460 lung) of 10.7 µM. For the same compound, the TGI (NCI-H460 lung) was 47 µM, the GI50 (COLO 205 colon) was 30.7 µM and the TGI (COLO 205 colon) was over 100 µM. The GI50 (UACC-257 melanoma) was 15.2 µM, the TGI (UACC-257 melanoma) was 56.6 µM and the GI50 (SF-295 CNS) was 11.7 µM. For the same compound, the TGI (SF-295 CNS) was 40.4 µM, the GI50 (SK-MEL-28 melanoma) was 22.4 µM and the TGI (SK-MEL-28 melanoma) was 84.5 µM. For the same compound, the GI50 (MCF7 breast) was 8.35 µM, the TGI (MCF7 breast) was 52.3 µM and the GI50 (SW-620 colon) was 17.3 µM. The TGI (SW-620 colon) was over 100 µM, the GI50 (NCI-H23 lung) was 13.8 µM and the TGI (NCI-H23 lung) was 49.8 µM. The GI50 (OVCAR-5 ovarian) was 24.6 µM, the TGI (OVCAR-5 ovarian) was 62.9 µM and the GI50 (KM12 colon) was 16.5 µM. It also gave a TGI (KM12 colon) of over 100 µM, a GI50 (PC-3 prostate) of 7.28 µM and a TGI (PC-3 prostate) of 66.2 µM. It also gave a GI50 (HOP-62 NSCLC) of 17.5 µM, a TGI (HOP-62 NSCLC) of 97.6 µM and a GI50 (NCI-H522 lung) of 6.73 µM. For the same compound, the TGI (NCI-H522 lung) was 39.3 µM, the GI50 (OVCAR-3 ovarian) was 11.9 µM and the TGI (OVCAR-3 ovarian) was 46.1 µM. For the same compound, the GI50 (RPMI-8226 leukemia) was 2.77 µM, the TGI (RPMI-8226 leukemia) was 37 µM and the GI50 (IGROV1 ovarian) was 4.84 µM. It also gave a TGI (IGROV1 ovarian) of 26.1 µM, a GI50 (HCC-2998 colon) of 16.5 µM and a TGI (HCC-2998 colon) of 72.4 µM. It also gave a GI50 (SF-268 CNS) of 15.8 µM, a TGI (SF-268 CNS) of 76.8 µM and a GI50 (HOP-92 NSCLC) of 3.17 µM. For the same compound, the TGI (HOP-92 NSCLC) was 18.5 µM, the GI50 (MDA-MB-435) was 17 µM and the TGI (MDA-MB-435) was 52.6 µM. It also gave a GI50 (CCRF-CEM leukemia) of 3.2 µM, a TGI (CCRF-CEM leukemia) of 47.1 µM and a GI50 (BT-549 breast) of 5.88 µM. For the same compound, the TGI (BT-549 breast) was 30 µM, the GI50 (NCI/ADR-RES ovarian) was 5.58 µM and the TGI (NCI/ADR-RES ovarian) was 40.8 µM. The GI50 (SN12C renal) was 15.4 µM, the TGI (SN12C renal) was 71.9 µM and the GI50 (MDA-MB-231 breast) was 5.75 µM. For the same compound, the TGI (MDA-MB-231 breast) was 27.5 µM, the GI50 (U251 CNS) was 19.8 µM and the TGI (U251 CNS) was 67.9 µM. For the same compound, the GI50 (OVCAR-8 ovarian) was 18.1 µM, the TGI (OVCAR-8 ovarian) was 72 µM and the GI50 (HS 578T breast) was 15 µM. It also gave a TGI (HS 578T breast) of over 100 µM, a GI50 (HT29 colon) of 16.4 µM and a TGI (HT29 colon) of 40.1 µM. It also gave a GI50 (NCI-H226 lung) of 11.5 µM and a TGI (NCI-H226 lung) of 61.7 µM.

Source: PubChem BioAssay (NCI)
